Source: patent US20260151403A1, “NEK7 DEGRADERS AND METHODS OF USE THEREOF” (Captor Therapeutics S.A., priority 2022, published 2026)

Legend:
Format in all cases: cell-based
[1] = target: NEK7 protein (Homo sapiens, UniProt Q8TDX7+Q96SW2); test: NEK7 protein degradation determined by Western blot in human PBMC-derived macrophages; conditions: 24 h; for remaining NEK7 protein amount at 10 µM: densitometric values normalized to loading control, read-out: Amount of NEK7 protein (% of DMSO control); for NEK7 protein degradation (Western blotting, in words): FIG. 1
Method: (§1) Macrophages were differentiated from human PBMCs isolated from buffy coats from healthy donors.
(§2) Buffy coats were diluted 1:1 (v/v) with DPBS (Sigma-Aldrich) in falcon tubes. After reconstitution, suspension was carefully layered on Histopaque-1077 solution (Sigma-Aldrich) and centrifuged (760×g, RT, 20 min; Brakes Off). PBMCs were collected and washed with DPBS (3× at 350×g, RT, 8 min and 1× at 200×g, RT, 10 min; Brakes On). Subsequently, cells were resuspended in appropriate volume of RPMI 1640 medium (Gibco) supplemented with 10% of heat-inactivated FBS (Gibco) and 1% of Penicillin-Streptomycin Solution 100x (Biowest). Cell viability was measured using trypan blue solution (Sigma-Aldrich).
(§3) 10×10^6 of PBMCs per well were seeded on 6-well plates in complete medium supplemented with 10 ng/ml of M-CSF growth factor (R&D Systems). Differentiation was conducted for a week with medium replacement every 2-3 days. Differentiation of PBMCs into mature macrophages was confirmed by microscopic evaluation and FACS surface staining for the following markers: CD11b, CD14, CD16 (BD Pharmingen). Differentiated macrophages were subjected on NLRP3 inflammasome activation assay.
(§4) Human PBMC-derived macrophages were pre-treated for 24 h with exemplary compounds at the specific concentrations. Dilutions of tested compound were prepared in DMSO. Afterwards cells were primed with 1 μg/ml of LPS (Invivogen) for 3 h and NLRP3 inflammasomes were activated with 5 μM of nigericin solution (Invivogen) for 1 h. Supernatants were centrifuged and stored for ELISA assays and cell lysates were prepared for Western blotting analysis.
Cell lysates from Human PBMC-derived macrophages were prepared by direct lysis in 40 μl RIPA lysis buffer (50 mM Tris·HCl pH 7.4, 150 mM NaCl, 1% NP-40, 0.25% sodium deoxycholate, 0.1% SDS and 1 mM EDTA) supplemented with protease and phosphatase inhibitors (cOmplete EDTA-free Protease Inhibitor Cocktail, Roche; Halt™ Phosphatase Inhibitor Cocktail, Thermo Scientific). Subsequently, lysates were snap frozen in liquid nitrogen and stored in −20° C. Following thawing, lysates were centrifuged at 4° C., 19 000×g for 15 min for supernatants collection. The protein concentration in each sample was determined by BCA method (Pierce BCA Protein Assay Kit, Thermo Fischer Scientific). The absorbance was measured using CLARIOstar Multimode Plate Reader at 562 nm. SDS-PAGE samples were prepared by mixing the lysates with 5×SB and RIPA buffer. Denaturation of the samples was performed by incubation at 95° C. for 5 minutes.
The protein samples were resolved on 4-20% TGX Stain-Free™ protein gels (Bio-Rad) and transferred onto nitrocellulose membranes (Bio-Rad) using Trans-Blot® Turbo system (Bio-Rad). Membranes were blocked in 5% non-dried milk (NFM) in TBS-T (10 mM Tris, 150 mM NaCl, 0.1% Tween-20) for 1 h at room temperature (RT). Membranes were incubated with primary antibodies for NEK7 (O/N, 4° C.) and loading control—β-Actin (1 h, RT) diluted in 5% NFM in TBS-T, followed by incubation with the appropriate horseradish peroxidase (HRP) conjugated secondary antibody diluted in 5% NFM in TBS-T for 1 h in RT. Between each antibody incubation, the membranes were washed in TBS-T. Membranes were developed using SuperSignal West Pico PLUS chemiluminescent substrate (ThermoScientific). Membrane images were captured using Chemi Doc Imager. The analysis was performed in Image Lab software. Densitometric values for NEK7 protein were normalized to the loading control and calculated as a relative to the cells treated with DMSO control.
NEK7-HiBiT degradation results were further confirmed for selected compounds in human PBMC-derived macrophages.

[2] = test system: IL-18 release (NLRP3 inflammasome activation); test: NLRP3 inflammasome activation assay, IL-18 release (ELISA) in human PBMC-derived macrophages; conditions: 10 μM, 24 h pre-treatment, then LPS 3 h and nigericin 1 h
Method: as §1, §2, §3, §4
(§5) IL-1β and IL-18 level was quantified using ELISA assays (R&D Systems) according to the manufacturer's protocol. 96-well plates were coated overnight with appropriate capture antibodies. Plates were blocked and incubated at RT for a minimum of 1 h. Samples or standards were added and incubated for 2 h in RT. Next, biotinylated anti-human IL-1β or IL-18 detection antibodies were added for 2 h in RT. Strepatividin-HRP solution was added for 20 min of incubation. Subsequently, substrate solution was added for 20 min. Between each step washing procedure was performed. The reaction was stopped, and optical density was determined using CLARIOstar Multimode Plate reader set to 450 nm with wavelength correction set to 570 nm. The analysis was performed with GraphPad Prism Software and Excel spreadsheet.
(§6) To evaluate compound effect on inflammasome activation (measured as IL-1β and IL-18 release), human PBMC-derived macrophages were treated with individual compounds for 24 h prior to inflammasome activation. As shown in the Table 4 and in FIGS. 2A and 2B, after 24 h of pre-treatment with exemplary compounds, a dose-dependent decrease of cytokines level was noted.

[3] = test system: IL-1β release (NLRP3 inflammasome activation); test: NLRP3 inflammasome activation assay, IL-1β release (ELISA) in human PBMC-derived macrophages; conditions: 10 μM, 24 h pre-treatment, then LPS 3 h and nigericin 1 h
Method: as §1, §2, §3, §4, §5, §6

Chain of NEK7 protein (Q8TDX7 whole entry): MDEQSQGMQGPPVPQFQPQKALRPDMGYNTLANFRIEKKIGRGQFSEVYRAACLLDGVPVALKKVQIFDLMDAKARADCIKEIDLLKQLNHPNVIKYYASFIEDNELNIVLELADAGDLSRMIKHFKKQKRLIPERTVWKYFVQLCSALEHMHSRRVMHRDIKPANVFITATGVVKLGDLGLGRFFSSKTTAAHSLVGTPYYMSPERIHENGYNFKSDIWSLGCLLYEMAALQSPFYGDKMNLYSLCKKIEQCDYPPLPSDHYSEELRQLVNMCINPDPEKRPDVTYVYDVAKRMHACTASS
Chain of NEK7 protein (Q96SW2 whole entry): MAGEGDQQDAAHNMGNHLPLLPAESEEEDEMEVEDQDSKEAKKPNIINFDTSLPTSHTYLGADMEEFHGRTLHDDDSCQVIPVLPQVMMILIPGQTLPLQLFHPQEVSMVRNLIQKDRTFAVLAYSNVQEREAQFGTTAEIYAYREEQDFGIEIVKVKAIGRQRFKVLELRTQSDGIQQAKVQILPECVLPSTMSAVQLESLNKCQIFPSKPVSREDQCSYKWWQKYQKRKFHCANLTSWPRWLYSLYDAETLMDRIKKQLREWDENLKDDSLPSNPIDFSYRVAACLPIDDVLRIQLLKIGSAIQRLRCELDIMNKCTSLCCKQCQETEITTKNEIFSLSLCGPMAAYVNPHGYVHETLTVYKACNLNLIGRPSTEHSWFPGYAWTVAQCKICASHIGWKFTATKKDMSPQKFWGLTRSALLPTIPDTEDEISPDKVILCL
Chain of NEK7 protein (Q16531 whole entry partner): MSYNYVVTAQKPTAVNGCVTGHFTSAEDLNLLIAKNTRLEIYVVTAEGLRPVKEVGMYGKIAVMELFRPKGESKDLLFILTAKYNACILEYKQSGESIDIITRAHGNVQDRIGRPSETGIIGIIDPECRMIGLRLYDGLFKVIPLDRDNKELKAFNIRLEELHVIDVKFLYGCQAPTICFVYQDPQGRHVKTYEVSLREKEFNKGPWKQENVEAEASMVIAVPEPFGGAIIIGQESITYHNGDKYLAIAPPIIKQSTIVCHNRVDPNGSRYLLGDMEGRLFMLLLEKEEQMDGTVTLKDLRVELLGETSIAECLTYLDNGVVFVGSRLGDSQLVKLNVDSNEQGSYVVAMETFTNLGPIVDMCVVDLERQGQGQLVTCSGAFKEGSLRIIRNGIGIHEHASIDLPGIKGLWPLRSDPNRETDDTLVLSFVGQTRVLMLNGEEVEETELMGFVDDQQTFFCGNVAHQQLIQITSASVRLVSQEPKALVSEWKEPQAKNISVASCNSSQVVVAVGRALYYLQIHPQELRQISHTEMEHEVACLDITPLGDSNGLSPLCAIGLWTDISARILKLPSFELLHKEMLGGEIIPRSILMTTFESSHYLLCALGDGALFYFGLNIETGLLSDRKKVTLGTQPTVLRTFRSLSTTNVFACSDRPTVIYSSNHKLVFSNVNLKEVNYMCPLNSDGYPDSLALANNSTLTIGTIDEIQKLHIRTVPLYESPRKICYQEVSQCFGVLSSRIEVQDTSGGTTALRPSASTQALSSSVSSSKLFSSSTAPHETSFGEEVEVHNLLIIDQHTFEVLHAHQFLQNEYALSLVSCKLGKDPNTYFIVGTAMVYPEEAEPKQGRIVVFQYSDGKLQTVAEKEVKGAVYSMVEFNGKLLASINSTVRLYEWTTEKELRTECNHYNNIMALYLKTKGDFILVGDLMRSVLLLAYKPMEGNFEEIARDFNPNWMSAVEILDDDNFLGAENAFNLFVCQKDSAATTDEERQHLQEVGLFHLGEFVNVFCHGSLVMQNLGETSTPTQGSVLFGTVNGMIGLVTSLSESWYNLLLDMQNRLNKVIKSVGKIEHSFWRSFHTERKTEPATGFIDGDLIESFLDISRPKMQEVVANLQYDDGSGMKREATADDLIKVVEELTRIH

`O=C1CCC(N2Cc3cc(-c4ccccn4)ccc3C2=O)C(=O)N1` (centres unmarked) [2(2), 3-(1-oxo-5-(pyridin-2-yl)isoindolin-2-yl)piperidine-2,6-dione] gave a remaining NEK7 protein amount at 10 µM [1] of 40 to 75%.
For `O=C1CCC(N2Cc3cc(-c4ccc(-c5ccccc5)cn4)ccc3C2=O)C(=O)N1` (centres unmarked) [4(2), 3-(1-oxo-5-(5-phenylpyridin-2-yl)isoindolin-2-yl)piperidine-2,6-dione], the “Level of released IL-18 (% of DMSO control)” value [2] was “B (Levels of released cytokines > 25% and ≤50%)”, the “Level of released IL-1β (% of DMSO control)” value [3] was “D (Levels of released cytokines ≥ 75%)” and the remaining NEK7 protein amount at 10 µM [1] was 40 to 75%.
In the case of `O=C1CCC(N2Cc3cc(C4CCCCN4)ccc3C2=O)C(=O)N1` (centres unmarked) [Compound 2, 3-(1-oxo-5-(piperidin-2-yl)isoindolin-2-yl)piperidine-2,6-dione], the “Level of released IL-18 (% of DMSO control)” value [2] is reported as “A (Levels of released cytokines ≤ 25%)”, the “Level of released IL-1β (% of DMSO control)” value [3] is reported as “B (Levels of released cytokines > 25% and ≤50%)” and the remaining NEK7 protein amount at 10 µM [1] is reported as 10 to 40%. The “NEK7 protein degradation (Western blotting, in words)” value [1] was “NEK7 protein degradation”.
With `Cc1c(C2CCCCN2)ccc2c1CN(C1CCC(=O)NC1=O)C2=O` (centres unmarked) [Compound 19, 3-(4-methyl-1-oxo-5-(piperidin-2-yl)isoindolin-2-yl)piperidine-2,6-dione] the “Level of released IL-18 (% of DMSO control)” value [2] was “C (Levels of released cytokines > 50% and <75%)”, the “Level of released IL-1β (% of DMSO control)” value [3] was “C (Levels of released cytokines > 50% and <75%)” and the remaining NEK7 protein amount at 10 µM [1] was 40 to 75%.
For `O=C1CCC(N2Cc3cc(C4CCCCN4)c(F)cc3C2=O)C(=O)N1` (centres unmarked) [Compound 23, 3-(6-fluoro-1-oxo-5-(piperidin-2-yl)isoindolin-2-yl)piperidine-2,6-dione], the remaining NEK7 protein amount at 10 µM [1] was 40 to 75%.
For `CC1c2cc(C3CCCCN3)ccc2C(=O)N1C1CCC(=O)NC1=O` (centres unmarked) [Compound 25, 3-(3-methyl-1-oxo-5-(piperidin-2-yl)isoindolin-2-yl)piperidine-2,6-dione], the “Level of released IL-18 (% of DMSO control)” value [2] was “A (Levels of released cytokines ≤ 25%)”, the “Level of released IL-1β (% of DMSO control)” value [3] was “A (Levels of released cytokines ≤ 25%)” and the remaining NEK7 protein amount at 10 µM [1] was no more than 10%. The “NEK7 protein degradation (Western blotting, in words)” value [1] was “NEK7 protein degradation”.
For `CC1c2cc(C3CCCCO3)ccc2C(=O)N1C1CCC(=O)NC1=O` (centres unmarked) [Compound 64, 3-(3-methyl-1-oxo-5-(tetrahydro-2H-pyran-2-yl)isoindolin-2-yl)piperidine-2,6-dione], the “Level of released IL-18 (% of DMSO control)” value [2] was “A (Levels of released cytokines ≤ 25%)”, the “Level of released IL-1β (% of DMSO control)” value [3] was “A (Levels of released cytokines ≤ 25%)” and the remaining NEK7 protein amount at 10 µM [1] was no more than 10%. For the same compound, the “NEK7 protein degradation (Western blotting, in words)” value [1] was “NEK7 protein degradation”.
